Key:
[1] = test system: NVAF patient with severe renal impairment or with normal renal functions or mild renal impairment; test: Phase-III trial targeting NVAF patient with severe renal impairment; details: for Any bleeding events (adjudicated), incidence / Any bleeding events (adjudicated), number of subjects with events / Clinically relevant non-major bleeding events, incidence / Clinically relevant non-major bleeding events, number of subjects with events / Major bleeding events, incidence / Major bleeding events, number of subjects with events: 12 weeks
NVAF patients = test: Late phase-II trial targeting NVAF patient in Japan (thromboembolic and bleeding events, 12 weeks); type: in vivo, human; details: for Bleeding events, subjects with event/subjects / Incidence of bleeding events (major, clinically relevant non-major and minor bleeding in total): all subjects
[2] = Normal/MiRI (CLCR 50 mL/min or higher), high-dose 60 mg once a day
[3] = Normal/MiRI (CLCR 50 mL/min or higher), low-dose 30 mg once a day
[4] = SRI (CLCR 15 to <30 mL/min), edoxaban 15 mg once a day
[5] = any of the treatment groups (SRI 15 mg, Normal/MiRI 30 mg, 60 mg)
[6] = 30 mg×1/day, 12 weeks, 30 ≦ CLCR < 50 mL/min
[7] = 30 mg×1/day, 12 weeks, 50 ≦ CLCR ≦ 80 mL/min
[8] = 30 mg×1/day, 12 weeks, 80 < CLCR mL/min
[9] = 45 mg×1/day, 12 weeks, 30 ≦ CLCR < 50 mL/min
[10] = 45 mg×1/day, 12 weeks, 50 ≦ CLCR ≦ 80 mL/min
[11] = 45 mg×1/day, 12 weeks, 80 < CLCR mL/min
[12] = 60 mg×1/day, 12 weeks, 30 ≦ CLCR < 50 mL/min
[13] = 60 mg×1/day, 12 weeks, 50 ≦ CLCR ≦ 80 mL/min
[14] = 60 mg×1/day, 12 weeks, 80 < CLCR mL/min
[15] = 60 mg×1/day, 12 weeks, CLCR < 30 mL/min
[16] = each edoxaban group (30, 45, 60 mg) vs warfarin group

## CN1CCc2nc(C(=O)N[C@@H]3C[C@@H](C(=O)N(C)C)CC[C@@H]3NC(=O)C(=O)Nc3ccc(Cl)cn3)sc2C1 [edoxaban, N^1-(5-chloropyridin-2-yl)-N^2-((1S,2R,4S)-4-[(dimethylamino)carbonyl]-2-{[(5-methyl-4,5,6,7-tetrahydrothiazolo[5,4-c]pyridin-2-yl)carbonyl]amino}cyclohexyl)ethanediamide]
[1]; 15 mg of edoxaban for 12 weeks in patients with SRI
  Bleeding compared to the low dose or high dose in patients with Normal/miRI: did not result in a marked increase in bleeding
[1]; [2]
  Any bleeding events (adjudicated), incidence: 23.8%
  Any bleeding events (adjudicated), number of subjects with events: 5
  Clinically relevant non-major bleeding events, incidence: 4.8%
  Clinically relevant non-major bleeding events, number of subjects with events: 1
  Major bleeding events, incidence: 0.0%
  Major bleeding events, number of subjects with events: 0
[1]; [3]
  Any bleeding events (adjudicated), incidence: 22.7%
  Any bleeding events (adjudicated), number of subjects with events: 5
  Clinically relevant non-major bleeding events, incidence: 0%
  Clinically relevant non-major bleeding events, number of subjects with events: 0
  Major bleeding events, incidence: 0.0%
  Major bleeding events, number of subjects with events: 0
[1]; SRI 15-mg edoxaban group vs Normal/MiRI low-dose (30-mg) or high-dose (60-mg) group
  Difference in the incidence of any adjudicated bleeding events: No notable difference
[1]; [4]
  Any bleeding events (adjudicated), incidence: 20.0%
  Any bleeding events (adjudicated), number of subjects with events: 10
  Clinically relevant non-major bleeding events, incidence: 0%
  Clinically relevant non-major bleeding events, number of subjects with events: 0
  Major bleeding events, incidence: 0.0%
  Major bleeding events, number of subjects with events: 0
[1]; all serious adverse events were reported in the SRI 15-mg group
  Relation of the serious adverse events to the study drug: considered unrelated to the study drug
[1]; any of the treatment groups
  Deaths: No deaths were reported
[1]; [5]
  Adjudicated major bleeding events: No adjudicated major bleeding events occurred
  Thromboembolic events (cerebral infarction and systemic embolism): No cerebral infarction or systemic embolism occurred
NVAF patients; [6]
  Bleeding event (major, clinically relevant non-major and minor in total), subjects with event/subjects: (3/15)
  Incidence of bleeding event (major, clinically relevant non-major and minor bleeding in total): 20.0%
  Incidence of major bleeding or clinically relevant non-major bleeding: 6.7%
  Major bleeding or clinically relevant non-major bleeding, subjects with event/subjects: (1/15)
NVAF patients; [7]
  Bleeding event (major, clinically relevant non-major and minor in total), subjects with event/subjects: (14/69)
  Incidence of bleeding event (major, clinically relevant non-major and minor bleeding in total): 20.3%
  Incidence of major bleeding or clinically relevant non-major bleeding: 1.4%
  Major bleeding or clinically relevant non-major bleeding, subjects with event/subjects: (1/69)
NVAF patients; [8]
  Bleeding event (major, clinically relevant non-major and minor in total), subjects with event/subjects: (7/46)
  Incidence of bleeding event (major, clinically relevant non-major and minor bleeding in total): 15.2%
  Incidence of major bleeding or clinically relevant non-major bleeding: 0%
  Major bleeding or clinically relevant non-major bleeding, subjects with event/subjects: (0/46)
NVAF patients; [9]
  Bleeding event (major, clinically relevant non-major and minor in total), subjects with event/subjects: (6/21)
  Incidence of bleeding event (major, clinically relevant non-major and minor bleeding in total): 28.6%
  Incidence of major bleeding or clinically relevant non-major bleeding: 9.5%
  Major bleeding or clinically relevant non-major bleeding, subjects with event/subjects: (2/21)
NVAF patients; [10]
  Bleeding event (major, clinically relevant non-major and minor in total), subjects with event/subjects: (19/72)
  Incidence of bleeding event (major, clinically relevant non-major and minor bleeding in total): 26.4%
  Incidence of major bleeding or clinically relevant non-major bleeding: 4.2%
  Major bleeding or clinically relevant non-major bleeding, subjects with event/subjects: (3/72)
NVAF patients; [11]
  Bleeding event (major, clinically relevant non-major and minor in total), subjects with event/subjects: (5/41)
  Incidence of bleeding event (major, clinically relevant non-major and minor bleeding in total): 12.2%
  Incidence of major bleeding or clinically relevant non-major bleeding: 4.9%
  Major bleeding or clinically relevant non-major bleeding, subjects with event/subjects: (2/41)
NVAF patients; [12]
  Bleeding event (major, clinically relevant non-major and minor in total), subjects with event/subjects: (4/15)
  Incidence of bleeding event (major, clinically relevant non-major and minor bleeding in total): 26.7%
  Incidence of major bleeding or clinically relevant non-major bleeding: 0%
  Major bleeding or clinically relevant non-major bleeding, subjects with event/subjects: (0/15)
NVAF patients; [13]
  Bleeding event (major, clinically relevant non-major and minor in total), subjects with event/subjects: (21/68)
  Incidence of bleeding event (major, clinically relevant non-major and minor bleeding in total): 30.9%
  Incidence of major bleeding or clinically relevant non-major bleeding: 10.3%
  Major bleeding or clinically relevant non-major bleeding, subjects with event/subjects: (7/68)
NVAF patients; [14]
  Bleeding event (major, clinically relevant non-major and minor in total), subjects with event/subjects: (10/46)
  Incidence of bleeding event (major, clinically relevant non-major and minor bleeding in total): 21.7%
  Incidence of major bleeding or clinically relevant non-major bleeding: 0%
  Major bleeding or clinically relevant non-major bleeding, subjects with event/subjects: (0/46)
NVAF patients; [15]
  Bleeding event (major, clinically relevant non-major and minor in total), subjects with event/subjects: (1/1)
  Incidence of bleeding event (major, clinically relevant non-major and minor bleeding in total): 100.0%
  Incidence of major bleeding or clinically relevant non-major bleeding: 0%
  Major bleeding or clinically relevant non-major bleeding, subjects with event/subjects: (0/1)
NVAF patients; [16]
  Incidence of bleeding events compared with the warfarin group: No statistically significant difference
  Incidence of major bleeding, or of major bleeding or clinically relevant non-major bleeding, compared with the warfarin group: not statistically significantly different
NVAF patients; edoxaban 30 mg group, 12 weeks
  Bleeding events, subjects with event/subjects: 24/130
  Incidence of bleeding events (major, clinically relevant non-major and minor bleeding in total): 18.5%
NVAF patients; edoxaban 45 mg group, 12 weeks
  Major bleeding, incidence: 2.2%
  Major bleeding, number of subjects: 3 subjects
  Bleeding events, subjects with event/subjects: 30/134
  Incidence of bleeding events (major, clinically relevant non-major and minor bleeding in total): 22.4%
NVAF patients; edoxaban 45 mg group, 12 weeks, the only thromboembolic event of the trial
  Thromboembolic events: one cerebral infarction
NVAF patients; edoxaban 60 mg group, 12 weeks
  Major bleeding, incidence: 1.5%
  Major bleeding, number of subjects: 2 subjects
  Bleeding events, subjects with event/subjects: 36/130
  Incidence of bleeding events (major, clinically relevant non-major and minor bleeding in total): 27.7%

From patent US20140371262A1, “PREVENTIVE AND/OR THERAPEUTIC AGENT FOR THROMBOEMBOLISM IN THROMBOEMBOLISM PATIENT WITH SEVERE RENAL IMPAIRMENT” (Daiichi Sankyo Company, Limited, priority 2011, published 2014)
